From patent US8524766B2, “Modulators of dopamine neurotransmission” (NSAB, Filial af Neurosearch Sweden AB, Sverige, priority 2008, dated 2013)
Where a name gives a salt, the structure may show the parent alone.

For `CC1CCCN(C[C@@H]2COc3ccc(S(C)(=O)=O)cc3O2)C1` (some centres unmarked) (as salt: fumaric acid salt), which melting point is on record?
Its melting point is 159 °C.

Which melting point does the source give for `CS(=O)(=O)c1ccc2c(c1)OC(CN1CCCC1)CO2` (centres unmarked) (as salt: hydrochloric acid salt) here?
Its melting point is 221 °C.

With `CC(C)CNC[C@@H]1COc2ccc(S(C)(=O)=O)cc2O1` (as salt: hydrochloric acid salt) as the compound, how does the melting point read?
The melting point was 213 °C.

With `CC(C)CNC[C@H]1COc2ccc(S(C)(=O)=O)cc2O1` (as salt: hydrochloric acid salt) as the compound, how does the melting point read?
The melting point was 214 °C.

With `CNCC1COc2c(F)cc(S(C)(=O)=O)cc2O1` (centres unmarked) (as salt: hydrochloric acid salt) as the compound, how does the melting point read?
The melting point was 243 °C.

With `CCNC[C@H]1COc2ccc(S(=O)(=O)C(F)(F)F)cc2O1` (as salt: hydrochloric acid salt) as the compound, how does the melting point read?
Its melting point is 208 °C.

With `CCNC[C@H]1COc2ccc(S(C)(=O)=O)c(F)c2O1` (as salt: hydrochloric acid salt) as the compound, how does the melting point read?
Its melting point is 270 °C.

With `CCNC[C@H]1COc2c(Cl)cc(S(C)(=O)=O)cc2O1` (as salt: hydrochloric acid salt) as the compound, how does the melting point read?
The melting point was 267 °C.

With `CS(=O)(=O)c1ccc2c(c1)O[C@@H](CNCCC(F)(F)F)CO2` (as salt: hydrochloric acid salt) as the compound, how does the melting point read?
The melting point was 204 °C.

With `CCNCC1COc2ccc(S(C)(=O)=O)cc2O1` (centres unmarked) (as salt: hydrochloric acid salt) as the compound, how does the melting point read?
Its melting point is 261 °C.

For `CS(=O)(=O)c1cc(F)c2c(c1)O[C@@H](CNCCC(F)(F)F)CO2` (as salt: hydrochloric acid salt), which melting point is on record?
Its melting point is 233 °C.

For `CNC[C@H]1COc2c(F)cc(S(C)(=O)=O)cc2O1` (as salt: hydrochloric acid salt), which melting point is on record?
The melting point was 260 °C.

Which melting point does the source give for `CCNC[C@H]1COc2ccc(S(C)(=O)=O)cc2O1` (as salt: hydrochloric acid salt) here?
Its melting point is 271 °C.

With `CNC[C@H]1COc2c(Cl)cc(S(C)(=O)=O)cc2O1` (as salt: hydrochloric acid salt) as the compound, how does the melting point read?
The melting point was 262 °C.

Which melting point does the source give for `CC(C)(C)CNC[C@H]1COc2ccc(S(C)(=O)=O)cc2O1` (as salt: hydrochloric acid salt) here?
Its melting point is 242 °C.

For `CS(=O)(=O)c1cc(F)c2c(c1)O[C@@H](CN1CCOCC1)CO2` (as salt: hydrochloric acid salt), which melting point is on record?
Its melting point is 251 °C.

With `CCCNCC1COc2ccc(S(C)(=O)=O)cc2O1` (centres unmarked) (as salt: hydrochloric acid salt) [Example 1, N-{[7-(METHYLSULFONYL)-2,3-DIHYDRO-1,4-BENZODIOXIN-2-YL]METHYL}-PROPAN-1-AMINE] as the compound, how does the melting point read?
The melting point was 223 °C.

For `CCCNC[C@@H]1COc2ccc(S(C)(=O)=O)cc2O1` (as salt: hydrochloric acid salt) [Example 2, N-{[(2R)-7-(METHYLSULFONYL)-2,3-DIHYDRO-1,4-BENZODIOXIN-2-YL]METHYL}-PROPAN-1-AMINE], which melting point is on record?
The melting point was 228 °C.

For `CCCNC[C@H]1COc2ccc(S(C)(=O)=O)cc2O1` (as salt: hydrochloric acid salt) [Example 3, N-{[(2S)-7-(METHYLSULFONYL)-2,3-DIHYDRO-1,4-BENZODIOXIN-2-YL]METHYL}-PROPAN-1-AMINE], which melting point is on record?
Its melting point is 228 °C.

Which melting point does the source give for `CS(=O)(=O)c1ccc2c(c1)OC(CN1CCCCC1)CO2` (centres unmarked) (as salt: hydrochloric acid salt) [Example 6, 1-{[7-(METHYLSULFONYL)-2,3-DIHYDRO-1,4-BENZODIOXIN-2-YL]METHYL}PIPERIDINE] here?
Its melting point is 248 °C.

Which melting point does the source give for `CS(=O)(=O)c1ccc2c(c1)O[C@@H](CN1CCCCC1)CO2` (as salt: hydrochloric acid salt) [Example 7, 1-{[(2S)-7-(METHYLSULFONYL)-2,3-DIHYDRO-1,4-BENZODIOXIN-2-YL]METHYL}PIPERIDINE] here?
The melting point was 227 °C.

For `CS(=O)(=O)c1ccc2c(c1)O[C@H](CN1CCCCC1)CO2` (as salt: hydrochloric acid salt) [Example 8, 1-{[(2R)-7-(METHYLSULFONYL)-2,3-DIHYDRO-1,4-BENZODIOXIN-2-YL]METHYL}PIPERIDINE], which melting point is on record?
Its melting point is 226 °C.

For `CNCC1COc2ccc(S(C)(=O)=O)cc2O1` (centres unmarked) (as salt: hydrochloric acid salt) [Example 9, N-METHYL-1-[7-(METHYLSULFONYL)-2,3-DIHYDRO-1,4-BENZODIOXIN-2-YL]METHANAMINE], which melting point is on record?
The melting point was 273 °C.

With `CNC[C@H]1COc2ccc(S(C)(=O)=O)cc2O1` (as salt: hydrochloric acid salt) [Example 10, N-METHYL-1-[(2S)-7-(METHYLSULFONYL)-2,3-DIHYDRO-1,4-BENZODIOXIN-2-YL]METHANAMINE] as the compound, how does the melting point read?
Its melting point is 248 °C.

For `CCCN(C)CC1COc2ccc(S(C)(=O)=O)cc2O1` (centres unmarked) (as salt: hydrochloric acid salt) [Example 15, N-METHYL-N-{[7-(METHYLSULFONYL)-2,3-DIHYDRO-1,4-BENZODIOXIN-2-YL]METHYL}PROPAN-1-AMINE], which melting point is on record?
The melting point was 222 °C.

With `CCCN(CCC)CC1COc2ccc(S(C)(=O)=O)cc2O1` (centres unmarked) (as salt: hydrochloric acid salt) [Example 16, N-{[7-(METHYLSULFONYL)-2,3-DIHYDRO-1,4-BENZODIOXIN-2-YL]METHYL}-N-PROPYLPROPAN-1-AMINE] as the compound, how does the melting point read?
The melting point was 182 °C.

With `CCNCC1COc2c(F)cc(S(C)(=O)=O)cc2O1` (centres unmarked) (as salt: hydrochloric acid salt) [Example 18, N-{[5-FLUORO-7-(METHYLSULFONYL)-2,3-DIHYDRO-1,4-BENZODIOXIN-2-YL]METHYL}ETHANAMINE] as the compound, how does the melting point read?
Its melting point is 256 °C.

With `CCNC[C@H]1COc2c(F)cc(S(C)(=O)=O)cc2O1` (as salt: hydrochloric acid salt) [Example 19, N-{[(2S)-5-FLUORO-7-(METHYLSULFONYL)-2,3-DIHYDRO-1,4-BENZODIOXIN-2-YL]METHYL}ETHANAMINE] as the compound, how does the melting point read?
Its melting point is 274 °C.

With `CCCNC[C@H]1COc2c(F)cc(S(C)(=O)=O)cc2O1` (as salt: hydrochloric acid salt) [Example 21, N-{[(2S)-5-FLUORO-7-(METHYLSULFONYL)-2,3-DIHYDRO-1,4-BENZODIOXIN-2-YL]METHYL}PROPAN-1-AMINE] as the compound, how does the melting point read?
Its melting point is 226 °C.

With `CCCNC[C@H]1COc2ccc(S(=O)(=O)C(F)(F)F)cc2O1` (as salt: hydrochloric acid salt) [Example 24, N-{[(2S)-7-(TRIFLUOROMETHYLSULFONYL)-2,3-DIHYDRO-1,4-BENZODIOXIN-2-YL]METHYL}PROPAN-1-AMINE] as the compound, how does the melting point read?
The melting point was 175 °C.

With `CCCNC[C@H]1COc2c(F)cc(S(C)(=O)=O)cc2O1` (as salt: hydrochloric acid salt) [Example 76, N-{[(2S)-5-FLUORO-7-(METHYLSULFONYL)-2,3-DIHYDRO-1,4-BENZODIOXIN-2-YL]METHYL}-PROPAN-1-AMINE] as the compound, how does the melting point read?
The melting point was 192 °C.

For `CC(C)NC[C@H]1COc2ccc(S(=O)(=O)C(F)(F)F)cc2O1` (as salt: hydrochloric acid salt) [Example 98, N-({(2S)-7-[(TRIFLUOROMETHYL)SULFONYL]-2,3-DIHYDRO-1,4-BENZODIOXIN-2-YL}METHYL)PROPAN-2-AMINE], which melting point is on record?
The melting point was 196.2 to 196.5 °C.
